From ChEMBL document CHEMBL1201862, “PubChem BioAssay data set” (2004)
Calls of active or inactive are those of the source. Cut-off read from the data, not from the text of the source, for most assays here: actives have a measured EC50 and inactives only a lower limit.

System: Streptococcus sp. 'group A'
Experiment: growth inhibition of control SK(-) GAS strain, dose response, counter-screen for streptokinase expression inhibitor project, luminescence, kanamycin, BacTiterGlo, confirmation (AID 1900)
Format: functional, organism-based
Conditions: not given

Row | Structure (SMILES) | EC50
1 | O=C(NC(=S)N(Cc1ccccc1)Cc1ccccc1)c1ccccc1F | 1.08 µM (active)
2 | Fc1ccc(Cn2cccc2C2=NC(c3ccccc3)CO2)cc1 (stereo not drawn) | 16 µM (active)
3 | Cc1ccc(OCCSc2nc(NC(C)C)nc(NC(C)C)n2)cc1 | 6.42 µM (active)

System: INS1
Experiment: beta cell apoptosis inhibitors, cytokine rescue, dose response, luminescence, retest (AID 449756);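 note: cell death triggered by IL-1 beta plus TNF-alpha plus IFN-gamma mixture; protective hits raise ATP signal compared with cytokine alone wells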
Format: functional, cell-based
Conditions: Rattus norvegicus

Row | Structure (SMILES) | AC50
4 | O=C(NCc1ccccc1)C1=C[C@@H](c2csc3ccccc23)C[C@@H](OCc2ccc(CO)cc2)O1 | 2.88 µM (active)
5 | CC(=O)c1c(C)[nH]c(C(=O)CN2CCN(S(=O)(=O)c3ccccc3)CC2)c1C | > 260 µM (inactive)
6 | C=CC[C@@H](CC(=O)N(CCO)Cc1ccccc1)C(=O)N[C@H](COC(=O)[C@@H](CC=C)CC(=O)OC(C)(C)C)c1ccccc1 | > 260 µM (inactive)

System: not listed separately
Experiment: NIH-3T3 fibroblast cytotoxicity, dose response, cytotoxicity control, cell-based, fluorescence, Alamar Blue, secondary assay (AID 2327);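 note: NIH-3T3 mouse fibroblasts cultured with fluconazole at 8 µg/mL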
Format: functional
Conditions: not given

Row | Structure (SMILES) | EC50
7 | Cc1cccc(N2CCN(c3nc(C)cc(C)c3C#N)CC2C)c1 (stereo not drawn) | 41.3 µM (active)
8 | O=C(/C=C/c1ccccc1)Nn1c(-c2cccs2)nc2ccccc2c1=O | > 160 µM (inactive)
9 | C=CCn1c(NC(=O)c2ccc(Br)o2)c(C(=O)OCC)sc1=S | > 160 µM (inconclusive)

Target: T1, Streptokinase A (Streptococcus pyogenes serotype M1, UniProt P10520)
T1 sequence (P10520 whole entry): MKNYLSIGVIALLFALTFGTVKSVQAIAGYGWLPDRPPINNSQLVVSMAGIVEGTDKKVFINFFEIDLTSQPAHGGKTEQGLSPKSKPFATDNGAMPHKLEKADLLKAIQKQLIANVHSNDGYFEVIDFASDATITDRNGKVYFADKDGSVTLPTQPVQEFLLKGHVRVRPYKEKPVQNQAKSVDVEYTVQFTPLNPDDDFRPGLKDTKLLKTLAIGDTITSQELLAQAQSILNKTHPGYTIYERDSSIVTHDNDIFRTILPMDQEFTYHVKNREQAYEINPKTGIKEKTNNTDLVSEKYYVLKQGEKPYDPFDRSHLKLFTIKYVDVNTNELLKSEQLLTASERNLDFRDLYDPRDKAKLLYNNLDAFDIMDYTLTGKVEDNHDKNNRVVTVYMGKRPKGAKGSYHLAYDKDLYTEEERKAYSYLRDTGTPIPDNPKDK
Experiment: S. pyogenes streptokinase expression inhibitors, potency, dose response, plasminogen activation absorbance, OD405 (AID 1914);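 note: secreted streptokinase activity via plasminogen activation per viability signal from cell pellet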
Format: functional, Streptococcus pyogenes M1 GAS
Conditions: not given

Row | Structure (SMILES) | EC50
10 | O=C(NC(=S)N(Cc1ccccc1)Cc1ccccc1)c1ccccc1F | > 150 µM (not active)
11 | Fc1ccc(Cn2cccc2C2=NC(c3ccccc3)CO2)cc1 (stereo not drawn) | 23.8 µM (active)
12 | Cc1ccc(OCCSc2nc(NC(C)C)nc(NC(C)C)n2)cc1 | 13.9 µM (active)

Target: T2, Protein skinhead-1 (Caenorhabditis elegans, UniProt P34707)
T2 sequence (P34707 whole entry): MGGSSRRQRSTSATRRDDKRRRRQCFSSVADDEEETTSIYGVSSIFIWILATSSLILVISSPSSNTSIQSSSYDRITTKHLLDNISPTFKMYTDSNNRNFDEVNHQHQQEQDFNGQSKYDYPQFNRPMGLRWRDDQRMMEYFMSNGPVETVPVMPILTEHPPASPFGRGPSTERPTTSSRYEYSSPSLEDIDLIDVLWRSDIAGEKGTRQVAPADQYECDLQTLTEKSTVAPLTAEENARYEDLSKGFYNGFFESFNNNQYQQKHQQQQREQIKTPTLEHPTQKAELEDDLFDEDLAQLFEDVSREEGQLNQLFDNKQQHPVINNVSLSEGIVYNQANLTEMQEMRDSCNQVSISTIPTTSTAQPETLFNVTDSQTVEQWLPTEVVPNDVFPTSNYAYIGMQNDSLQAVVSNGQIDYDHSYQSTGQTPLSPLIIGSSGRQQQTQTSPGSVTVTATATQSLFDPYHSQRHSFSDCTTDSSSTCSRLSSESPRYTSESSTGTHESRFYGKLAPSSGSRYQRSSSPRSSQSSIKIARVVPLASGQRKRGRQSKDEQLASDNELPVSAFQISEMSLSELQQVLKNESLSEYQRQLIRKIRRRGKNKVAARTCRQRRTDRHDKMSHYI
Format: functional
Conditions: not given

Row | Structure (SMILES) | IC50
13 | CN(CC(=O)Nc1cccc(F)c1)C(=O)CC1CC2CCC1C2 (stereo not drawn) | > 100 µM (inactive)
14 | CCn1c(C)c(C)c2cc(C(=O)N3CCN(c4ccccc4)CC3)ccc21 | > 100 µM (inactive)
15 | COC(=O)c1c2c(nc3ccccc13)CCC2 | > 100 µM (inactive)
16 | CCCOc1ccc(OCCSc2ncccn2)cc1 | 82.8 µM (inactive)
17 | O=C(C=Cc1ccco1)c1ccc2ccccc2c1 | 9.38 µM (active)
18 | Cc1ccc(-c2nnn(CC(=O)NCC3COCCO3)n2)o1 (stereo not drawn) | > 100 µM (inactive)
19 | O=[N+]([O-])c1ccc(Nc2nccc(Cl)n2)cc1 | > 100 µM (inactive)

Target: T3, Protein RecA (Mycobacterium tuberculosis, UniProt P9WHJ3)
T3 sequence (P9WHJ3 whole entry): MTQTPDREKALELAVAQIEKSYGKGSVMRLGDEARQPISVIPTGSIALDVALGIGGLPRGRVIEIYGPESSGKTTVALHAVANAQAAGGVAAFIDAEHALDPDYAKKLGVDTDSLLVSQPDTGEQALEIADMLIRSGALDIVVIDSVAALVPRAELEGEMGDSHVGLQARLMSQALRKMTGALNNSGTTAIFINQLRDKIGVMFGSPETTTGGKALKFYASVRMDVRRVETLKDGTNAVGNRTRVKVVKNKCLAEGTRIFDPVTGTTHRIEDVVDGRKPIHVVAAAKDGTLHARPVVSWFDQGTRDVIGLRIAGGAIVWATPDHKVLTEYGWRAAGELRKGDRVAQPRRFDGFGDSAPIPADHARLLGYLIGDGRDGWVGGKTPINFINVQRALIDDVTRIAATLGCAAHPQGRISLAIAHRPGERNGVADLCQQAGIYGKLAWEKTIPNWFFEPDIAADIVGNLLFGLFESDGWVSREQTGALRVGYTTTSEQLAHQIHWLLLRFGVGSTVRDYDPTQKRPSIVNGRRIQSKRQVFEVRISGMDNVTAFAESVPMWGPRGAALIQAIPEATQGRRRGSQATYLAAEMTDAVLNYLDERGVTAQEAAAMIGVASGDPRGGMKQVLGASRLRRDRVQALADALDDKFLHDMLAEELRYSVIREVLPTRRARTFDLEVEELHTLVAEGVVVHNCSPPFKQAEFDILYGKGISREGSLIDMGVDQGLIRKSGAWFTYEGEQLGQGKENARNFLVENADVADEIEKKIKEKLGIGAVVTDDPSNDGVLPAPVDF
Experiment: Fluorescence Cell-Free Homogeneous Dose Retest to Identify Inhibitors of RecA-Intein Splicing Activity. [Related pubchem assays (depositor defined):AID2097, AID2223, AID489010, AID492950]
Format: functional
Conditions: not given

Row | Structure (SMILES) | EC50
20 | Cn1c(-c2ccccc2)c(C(=O)CCl)c2ccccc21 | 3.04 µM (active)

System: not listed separately
Experiment: C. albicans growth with fluconazole, confirmation, fluorescence, retest (AID 2467)
Format: functional, cell-based
Conditions: not given

Row | Structure (SMILES) | EC50
21 | Cc1cccc(N2CCN(c3nc(C)cc(C)c3C#N)CC2C)c1 (stereo not drawn) | > 38 µM (not active)
22 | O=C(/C=C/c1ccccc1)Nn1c(-c2cccs2)nc2ccccc2c1=O | 0.102 µM (active)
23 | C=CCn1c(NC(=O)c2ccc(Br)o2)c(C(=O)OCC)sc1=S | > 38 µM (not active)

Target: Cytochrome P450 2D6 (Homo sapiens, UniProt P10635);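 note: CYP2D6 member of a cytochrome P450 panel assay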
Sequence (P10635 whole entry): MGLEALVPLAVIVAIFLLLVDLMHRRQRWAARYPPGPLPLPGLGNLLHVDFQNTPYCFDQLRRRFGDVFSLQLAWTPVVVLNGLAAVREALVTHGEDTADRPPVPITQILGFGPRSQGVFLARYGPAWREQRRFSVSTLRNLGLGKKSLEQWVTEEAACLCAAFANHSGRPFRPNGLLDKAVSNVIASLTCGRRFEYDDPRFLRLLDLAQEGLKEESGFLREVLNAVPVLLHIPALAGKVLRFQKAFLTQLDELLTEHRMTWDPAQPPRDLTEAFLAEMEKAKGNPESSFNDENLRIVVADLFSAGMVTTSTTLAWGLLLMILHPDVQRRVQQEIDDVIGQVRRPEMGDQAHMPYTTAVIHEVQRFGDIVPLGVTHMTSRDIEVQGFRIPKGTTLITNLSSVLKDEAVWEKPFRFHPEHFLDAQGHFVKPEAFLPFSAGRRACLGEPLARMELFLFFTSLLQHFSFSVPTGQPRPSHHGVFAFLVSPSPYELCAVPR
Conditions: not given

Row | Structure (SMILES) | AC50
24 | O=C(NC(=S)N(Cc1ccccc1)Cc1ccccc1)c1ccccc1F | 0.2 µM (inconclusive)

Target: T4, Replicative DNA helicase DnaB (Mycobacterium tuberculosis, UniProt P9WMR3)
T4 sequence (P9WMR3 whole entry): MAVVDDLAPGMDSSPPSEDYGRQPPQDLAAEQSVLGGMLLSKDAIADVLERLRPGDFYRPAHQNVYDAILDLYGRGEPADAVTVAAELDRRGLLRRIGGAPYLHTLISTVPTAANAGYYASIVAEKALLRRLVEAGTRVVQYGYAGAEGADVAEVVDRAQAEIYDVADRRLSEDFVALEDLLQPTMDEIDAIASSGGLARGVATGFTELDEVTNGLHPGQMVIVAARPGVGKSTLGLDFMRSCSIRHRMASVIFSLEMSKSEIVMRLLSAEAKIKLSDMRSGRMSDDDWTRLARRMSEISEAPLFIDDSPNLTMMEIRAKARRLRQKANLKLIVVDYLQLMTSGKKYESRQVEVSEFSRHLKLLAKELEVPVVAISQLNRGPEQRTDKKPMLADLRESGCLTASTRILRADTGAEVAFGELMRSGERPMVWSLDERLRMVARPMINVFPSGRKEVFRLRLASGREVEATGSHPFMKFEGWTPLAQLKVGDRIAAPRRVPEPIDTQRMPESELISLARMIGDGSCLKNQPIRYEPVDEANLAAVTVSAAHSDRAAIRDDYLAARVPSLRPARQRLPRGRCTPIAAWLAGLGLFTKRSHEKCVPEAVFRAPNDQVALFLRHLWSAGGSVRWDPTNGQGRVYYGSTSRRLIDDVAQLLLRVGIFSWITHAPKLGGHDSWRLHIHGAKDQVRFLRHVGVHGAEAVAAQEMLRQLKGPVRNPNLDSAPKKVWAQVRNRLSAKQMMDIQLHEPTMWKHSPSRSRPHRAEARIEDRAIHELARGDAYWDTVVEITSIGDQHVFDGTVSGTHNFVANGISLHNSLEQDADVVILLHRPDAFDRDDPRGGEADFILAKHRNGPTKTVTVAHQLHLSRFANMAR
Experiment: DnaB intein splicing inhibitors, dose response, biochemical, cell-free fluorescence (AID 449749)
Format: functional
Conditions: not given

Row | Structure (SMILES) | AC50
25 | Cn1c(-c2ccccc2)c(C(=O)CCl)c2ccccc21 | 6.94 µM (active)

System: not listed separately
Experiment: inhibitors of intracellular T. cruzi replication, confirmation, NIH3T3 host cells, beta-gal luminescence (AID 2044);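 note: intracellular parasites grown in NIH/3T3 mouse fibroblasts as host cells; luminescent beta-galactosidase reporter signal from transgenic T. cruzi replicating inside host cells; inhibitors lower the luminescence signal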
Format: functional, cell-based
Conditions: not given

Row | Structure (SMILES) | EC50
26 | Cn1c(-c2ccccc2)c(C(=O)CCl)c2ccccc21 | 0.998 µM (active)
27 | Cc1cccc(N2CCN(c3nc(C)cc(C)c3C#N)CC2C)c1 (stereo not drawn) | 3.63 µM (active)

System: Streptococcus
Experiment: Group A Streptococcus viability loss, dose response, counter-screen for streptokinase expression inhibitor project, luminescence, BacTiterGlo (AID 1915);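 note: potency for reduction of bacterial viability or growth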
Format: functional, organism-based
Conditions: not given

Row | Structure (SMILES) | EC50
28 | O=C(NC(=S)N(Cc1ccccc1)Cc1ccccc1)c1ccccc1F | 9.16 µM (active)
29 | Fc1ccc(Cn2cccc2C2=NC(c3ccccc3)CO2)cc1 (stereo not drawn) | > 150 µM (not active)
30 | Cc1ccc(OCCSc2nc(NC(C)C)nc(NC(C)C)n2)cc1 | 34.2 µM (active)

System: not listed separately
Experiment: cytotoxicity toward NIH3T3 fibroblasts, dose response, counter-screen, cell-based, ATP luminescence, mouse fibroblasts (AID 2010);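 note: cells exposed to compound for about 90 hours before reading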
Format: functional
Conditions: not given

Row | Structure (SMILES) | EC50
31 | Cn1c(-c2ccccc2)c(C(=O)CCl)c2ccccc21 | 2.44 µM (active)
32 | Cc1cccc(N2CCN(c3nc(C)cc(C)c3C#N)CC2C)c1 (stereo not drawn) | > 60 µM (not active)

System: not listed separately
Experiment: Luminescence Cell-Based Dose Retest to Confirm Inhibitors of Cancer Stem Cells. [Related pubchem assays (depositor defined):AID2717, AID2721]
Format: functional
Conditions: Homo sapiens

Row | Structure (SMILES) | AC50
33 | Cc1ccc(OCCSc2nc(NC(C)C)nc(NC(C)C)n2)cc1 | 1.11 µM (active)
